Test results from patent US20100137303A1, “NEW COMPOUND 255” (AstraZeneca AB, priority 2008, published 2010).
Values after ≈ are worked out from the molar mass of the structure shown.

Columns and labels:
[1] = test system: M. tuberculosis; assay: Mycobacteria susceptibility testing, Microplate Alamar Blue Assay, Mtu MIC; type: cell-based, Mycobacterium tuberculosis (Mtu); conditions: for MIC: Mycobacterium tuberculosis
[2] = test system: Spn548; assay: Bacterial susceptibility testing in liquid media, Spn548 MIC; conditions: Streptococcus pneumoniae, 24 h, read-out: Spn548 Mean MIC
Source text: (§1) Compounds may be tested for antimicrobial activity by susceptibility testing in liquid media. Compounds may be dissolved in dimethylsulfoxide and tested in 10 doubling dilutions in the susceptibility assays. The organisms used in the assay may be grown overnight on suitable agar media and then suspended in a liquid medium appropriate for the growth of the organism. The suspension can be a 0.5 McFarland and a further 1 in 10 dilution can be made into the same liquid medium to prepare the final organism suspension in 100 μL. Plates can be incubated under appropriate conditions at 37° C. for 24 hrs prior to reading.

[3] = test system: Eco-tolC; assay: Bacterial susceptibility testing in liquid media, Eco-tolC MIC; conditions: for MIC: Escherichia coli, read-out: Eco-tolC MIC
Source text: as §1

[4] = target: T1, Msm. GyrB (Mycolicibacterium smegmatis, UniProt A0QNE0); assay: Msmegmatis GyrB enzyme assay (ATPase, malachite green phosphate detection); type: biochemical; conditions: read-out: Msm_GyrB IC50
T1 construct: 15 nM Msm; GyrB, 650 μM ATP, and compound in dimethyl sulfoxide
T1 sequence (A0QNE0 whole entry): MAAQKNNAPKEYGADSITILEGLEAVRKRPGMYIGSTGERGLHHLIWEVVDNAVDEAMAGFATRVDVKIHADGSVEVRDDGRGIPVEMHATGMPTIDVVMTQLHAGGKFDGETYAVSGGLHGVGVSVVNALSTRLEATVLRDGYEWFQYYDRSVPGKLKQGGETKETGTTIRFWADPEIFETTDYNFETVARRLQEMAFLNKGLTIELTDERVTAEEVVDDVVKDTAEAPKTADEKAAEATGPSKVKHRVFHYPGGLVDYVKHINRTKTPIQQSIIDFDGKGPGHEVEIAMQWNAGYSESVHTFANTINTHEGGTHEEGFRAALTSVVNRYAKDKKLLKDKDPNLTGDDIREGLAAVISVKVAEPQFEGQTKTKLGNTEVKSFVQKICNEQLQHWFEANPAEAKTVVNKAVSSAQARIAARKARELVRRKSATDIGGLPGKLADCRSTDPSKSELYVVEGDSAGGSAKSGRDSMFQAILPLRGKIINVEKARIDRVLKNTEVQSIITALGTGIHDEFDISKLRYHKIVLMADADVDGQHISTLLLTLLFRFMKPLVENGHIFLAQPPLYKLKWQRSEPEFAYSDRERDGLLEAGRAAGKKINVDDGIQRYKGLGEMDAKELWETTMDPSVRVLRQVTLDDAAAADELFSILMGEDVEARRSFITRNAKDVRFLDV
Method: Compounds may be tested for inhibition of GyrB ATPase activity using an ammonium molybdate/malachite green-based phosphate detection assay (Lanzetta, P. A., L. J. Alvarez, P. S. Reinach, and O. A. Candia, 1979, 100: 95-97; Innova Biosciences malachite green detection kit). Assays can be performed in multi-well plates in 50 μl reactions containing: 50 mM HEPES buffer pH 7.7, 250 mM potassium glutamate, 200 mM potassium chloride, 2 mM magnesium chloride, 2% glycerol, 1 mM 1,4-Dithio-DL-threitol, 0.005% Brij-35, 15 nM Msm. GyrB, 650 μM ATP, and compound in dimethyl sulfoxide. Reactions can be quenched with 12.5 μl of ammonium molybdate/malachite green detection reagent (Pi color lock gold & accelerator mix; Innova Biosciences), followed by the addition of 5 μl of stabilizer (Innova Biosciences) after 5 min of incubation.

Structure (SMILES)	MIC [1]	MIC [2]	MIC [3]	Mtu MIC [1]	Eco-tolC MIC [3]	IC50 [4]
CCNC(=O)Nc1nc2cc(-c3cncnc3)c(OCC3CCOC3)nc2s1 (single isomer, unassigned; isomer 1) [Example 68, 1-ethyl-3-[6-pyrimidin-5-yl-5-(tetrahydrofuran-3-ylmethoxy)[1,3]thiazolo[5,4-b]pyridin-2-yl]urea (Chiral isomer 1)]	0.0884 µg/mL (≈ 0.221 µM)	0.125 µg/mL (≈ 0.312 µM)	0.5 µg/mL (≈ 1.25 µM)	–	–	–
CCNC(=O)Nc1nc2cc(-c3cncnc3)c(OCC3CCOC3)nc2s1 (single isomer, unassigned; isomer 2) [Example 69, 1-ethyl-3-[6-pyrimidin-5-yl-5-(tetrahydrofuran-3-ylmethoxy)[1,3]thiazolo[5,4-b]pyridin-2-yl]urea (Chiral isomer 2)]	–	–	–	0.08839 µg/mL	0.25 µg/mL	–
C=CCNC(=O)Nc1nc2cc(Cl)cnc2s1 [Example 1, 1-Allyl-3-(6-chloro-thiazolo [5,4-b]pyridin-2-yl)-urea]	16 µg/mL (≈ 59.5 µM)	8 µg/mL (≈ 29.8 µM)	16 µg/mL (≈ 59.5 µM)	–	–	191 nM
C=CCNC(=O)Nc1nc2cc(Br)c(C)nc2s1 [Example 2, 1-Allyl-3-(6-bromo-5-methyl-thiazolo [5,4-b]pyridin-2-yl)-urea]	–	> 32 µg/mL	32 µg/mL (≈ 97.8 µM)	–	–	2190 nM
C=CCNC(=O)Nc1nc2cc(-c3cccnc3)cnc2s1 [Example 3, 1-allyl-3-[6-(3-pyridyl)thiazolo [5,4-b]pyridin-2-yl] urea]	10.1 µg/mL (≈ 32.4 µM)	1 µg/mL (≈ 3.21 µM)	> 64 µg/mL	–	–	–
CCNC(=O)Nc1nc2cc(-c3cnc(OC)nc3)cnc2s1 [Example 4, 1-ethyl-3-[6-(2-methoxypyrimidin-5-yl)thiazolo [5,4-b]pyridin-2-yl] urea]	> 8 µg/mL	0.5 µg/mL (≈ 1.51 µM)	> 64 µg/mL	–	–	140 nM
CCNC(=O)Nc1nc2cc(-c3cccnc3)cnc2s1 [Example 5, 1-Ethyl-3-(6-pyridin-3-yl-thiazolo [5,4-b]pyridin-2-yl)-urea]	–	1.56 µg/mL (≈ 5.21 µM)	8.83 µg/mL (≈ 29.5 µM)	–	–	–
C=CCNC(=O)Nc1nc2cc(-c3cncnc3)c(C)nc2s1 [Example 6, 1-Allyl-3-(5-methyl-6-pyrimidin-5-yl-thiazolo [5,4-b]pyridin-2-yl)-urea]	8 µg/mL (≈ 24.5 µM)	1.01 µg/mL (≈ 3.09 µM)	32.3 µg/mL (≈ 99 µM)	–	–	151 nM
C=CCNC(=O)Nc1nc2cc(-c3cnc(OC)nc3)c(C)nc2s1 [Example 7, 1-Allyl-3-[6-(2-methoxy-pyrimidin-5-yl)-5-methyl-thiazolo [5,4-b]pyridin-2-yl]-urea]	32 µg/mL (≈ 89.8 µM)	0.0625 µg/mL (≈ 0.175 µM)	> 32 µg/mL	–	–	239 nM
C=CCNC(=O)Nc1nc2cc(-c3cncc(C(=O)OCC)c3)c(C)nc2s1 [Example 8, 5-[2-(3-Allyl-ureido)-5-methyl-thiazolo [5,4-b]pyridin-6-yl]-nicotinic acid ethyl ester]	> 32 µg/mL	> 39.8 µg/mL	> 39.8 µg/mL	–	–	151 nM
CCNC(=O)Nc1nc2cc(-c3cncc(C(=O)OCC)c3)cnc2s1 [Example 9, 5-[2-(3-Ethyl-ureido)-thiazolo [5,4-b]pyridin-6-yl]-nicotinic acid ethyl ester]	> 32 µg/mL	0.58 µg/mL (≈ 1.56 µM)	> 37.1 µg/mL	–	–	51.1 nM
C=CCNC(=O)Nc1nc2cc(-c3cncc(C(=O)O)c3)cnc2s1 [Example 10, 5-[2-(3-Allyl-ureido)-thiazolo[5,4-b]pyridin-6-yl]-nicotinic acid]	> 16 µg/mL	32 µg/mL (≈ 90 µM)	> 64 µg/mL	–	–	185 nM
CCNC(=O)Nc1nc2cc(-c3cncc(C(=O)O)c3)cnc2s1 [Example 11, 5-[2-(3-Ethyl-ureido)-thiazolo [5,4-b]pyridin-6-yl]-nicotinic acid]	32 µg/mL (≈ 93.2 µM)	17.2 µg/mL (≈ 50 µM)	> 34.3 µg/mL	–	–	159 nM
C=CCNC(=O)Nc1nc2cc(-c3cncc(C(=O)O)c3)c(C)nc2s1 [Example 12, 5-[2-(3-Allyl-ureido)-5-methylthiazolo [5,4b]pyridin-6-yl]nicotinic acid]	> 32 µg/mL	32 µg/mL (≈ 86.6 µM)	> 32 µg/mL	–	–	166 nM
C=CCNC(=O)Nc1nc2cc(-c3cccnc3)c(OCCN3CCOCC3)nc2s1 [Example 28, 1-[5-(2-morpholin-4-ylethoxy)-6-pyridin-3-yl[1,3]thiazolo[5,4-b]pyridin-2-yl]-3-prop-2-en-1-ylurea]	> 22.6 µg/mL	4 µg/mL (≈ 9.08 µM)	> 32 µg/mL	–	–	–
C=CCNC(=O)Nc1nc2cc(-c3cccnc3)c(OCCOC)nc2s1 [Example 29, 1-[5-(2-methoxyethoxy)-6-pyridin-3-yl[1,3]thiazolo[5,4-b]pyridin-2-yl]-3-prop-2-en-1-ylurea]	4 µg/mL (≈ 10.4 µM)	0.152 µg/mL (≈ 0.395 µM)	1.22 µg/mL (≈ 3.16 µM)	–	–	–

Structure (SMILES)	MIC [1]	MIC [2]	MIC [3]	Mtu MIC [1]	Eco-tolC MIC [3]	IC50 [4]
CCNC(=O)Nc1nc2cc(-c3cncnc3)c(OCC3CCOC3)nc2s1 (centres unmarked) [Example 36, 1-ethyl-3-[6-pyrimidin-5-yl-5-(tetrahydrofuran-3-ylmethoxy)[1,3]thiazolo[5,4-b]pyridin-2-yl]urea]	0.0544 µg/mL (≈ 0.136 µM)	0.0625 µg/mL (≈ 0.156 µM)	0.125 µg/mL (≈ 0.312 µM)	–	–	–
CCNC(=O)Nc1nc2cc(-c3ccc(F)nc3)c(OCC3CCOC3)nc2s1 (centres unmarked) [Example 40, 1-ethyl-3-[6-(6-fluoropyridin-3-yl)-5-(tetrahydrofuran-3-ylmethoxy)[1,3]thiazolo[5,4-b]pyridin-2-yl]urea]	0.354 µg/mL (≈ 0.847 µM)	0.0714 µg/mL (≈ 0.171 µM)	0.571 µg/mL (≈ 1.37 µM)	–	–	–
CCNC(=O)Nc1nc2cc(-c3cccnc3)c(OCC3CCOC3)nc2s1 (centres unmarked) [Example 42, 1-ethyl-3-[6-pyridin-3-yl-5-(tetrahydrofuran-3-ylmethoxy)[1,3]thiazolo[5,4-b]pyridin-2-yl]urea]	0.42 µg/mL (≈ 1.05 µM)	0.078 µg/mL (≈ 0.195 µM)	1.25 µg/mL (≈ 3.12 µM)	–	–	–
CCNC(=O)Nc1nc2cc(-c3cncnc3)c(OCCOC)nc2s1 [Example 44, 1-ethyl-3-[5-(2-methoxyethoxy)-6-pyrimidin-5-yl[1,3]thiazolo[5,4-b]pyridin-2-yl]urea]	0.25 µg/mL (≈ 0.668 µM)	0.0731 µg/mL (≈ 0.195 µM)	1.17 µg/mL (≈ 3.12 µM)	–	–	–
CCNC(=O)Nc1nc2cc(-c3cccnc3)c(OCCOC)nc2s1 [Example 45, 1-ethyl-3-[5-(2-methoxyethoxy)-6-pyridin-3-yl[1,3]thiazolo[5,4-b]pyridin-2-yl]urea]	1 µg/mL (≈ 2.68 µM)	0.292 µg/mL (≈ 0.781 µM)	4.67 µg/mL (≈ 12.5 µM)	–	–	–
CCNC(=O)Nc1nc2cc(-c3ccc(C#N)nc3)c(OCC3CCOC3)nc2s1 (centres unmarked) [Example 54, 1-[6-(6-cyanopyridin-3-yl)-5-(tetrahydrofuran-3-ylmethoxy)[1,3]thiazolo[5,4-b]pyridin-2-yl]-3-ethylurea]	0.177 µg/mL (≈ 0.417 µM)	0.0625 µg/mL (≈ 0.147 µM)	1 µg/mL (≈ 2.36 µM)	–	–	–
CCNC(=O)Nc1nc2cc(-c3cncc(C#N)c3)c(OCC3CCOC3)nc2s1 (centres unmarked) [Example 57, 1-[6-(5-cyanopyridin-3-yl)-5-(tetrahydrofuran-3-ylmethoxy)[1,3]thiazolo[5,4-b]pyridin-2-yl]-3-ethylurea]	0.25 µg/mL (≈ 0.589 µM)	0.0625 µg/mL (≈ 0.147 µM)	0.0625 µg/mL (≈ 0.147 µM)	–	–	–
CCNC(=O)Nc1nc2cc(-c3cnn(C)c3)c(OCC3CCOC3)nc2s1 (centres unmarked) [Example 71, 1-ethyl-3-[6-(1-methyl-1H-pyrazol-4-yl)-5-(tetrahydrofuran-3-ylmethoxy)[1,3]thiazolo[5,4-b]pyridin-2-yl]urea]	0.707 µg/mL (≈ 1.76 µM)	0.125 µg/mL (≈ 0.311 µM)	0.5 µg/mL (≈ 1.24 µM)	–	–	–
CCNC(=O)Nc1nc2cc(-c3cncnc3)c(OC(C)C)nc2s1 [Example 73, 1-ethyl-3-[5-(1-methylethoxy)-6-pyrimidin-5-yl[1,3]thiazolo[5,4-b]pyridin-2-yl]urea]	0.125 µg/mL (≈ 0.349 µM)	–	–	–	–	5.2 nM
CCNC(=O)Nc1nc2cc(-c3ccc(F)nc3)c(OC(C)C)nc2s1 [Example 74, 1-ethyl-3-[6-(6-fluoropyridin-3-yl)-5-(1-methylethoxy)[1,3]thiazolo[5,4-b]pyridin-2-yl]urea]	1 µg/mL (≈ 2.66 µM)	–	–	–	–	10 nM
CCNC(=O)Nc1nc2cc(-c3cnc(C#N)nc3)c(OC3CCOC3)nc2s1 (centres unmarked) [Example 75, 1-[6-(2-cyanopyrimidin-5-yl)-5-(tetrahydrofuran-3-yloxy)[1,3]thiazolo[5,4-b]pyridin-2-yl]-3-ethylurea]	< 0.06 µg/mL	–	–	–	–	< 2.54 nM
CCNC(=O)Nc1nc2cc(-c3ccc(F)nc3)c(OC3CCOC3)nc2s1 (centres unmarked) [Example 76, 1-ethyl-3-[6-(6-fluoropyridin-3-yl)-5-(tetrahydrofuran-3-yloxy)[1,3]thiazolo[5,4-b]pyridin-2-yl]urea]	0.5 µg/mL (≈ 1.24 µM)	–	–	–	–	3.54 nM
CCNC(=O)Nc1nc2cc(-c3cnc(C(F)(F)F)nc3)c(OCC3CCOC3)nc2s1 (centres unmarked) [Example 77, 1-ethyl-3-{5-(tetrahydrofuran-3-ylmethoxy)-6-[2-(trifluoromethyl)pyrimidin-5-yl][1,3]thiazolo[5,4-b]pyridin-2-yl}urea]	2.83 µg/mL (≈ 6.04 µM)	–	–	–	–	2.9 nM
CCNC(=O)Nc1nc2cc(-c3cncc(-c4n[nH]c(=O)o4)c3)c(OCC3CCOC3)nc2s1 (centres unmarked) [Example 78, 1-ethyl-3-{6-[5-(5-oxo-4,5-dihydro-1,3,4-oxadiazol-2-yl)pyridin-3-yl]-5-(tetrahydrofuran-3-ylmethoxy)[1,3]thiazolo[5,4-b]pyridin-2-yl}urea]	8 µg/mL (≈ 16.5 µM)	–	–	–	–	< 2.54 nM
CCNC(=O)Nc1nc2cc(-c3cncc(F)c3)c(OCC3CCOC3)nc2s1 (centres unmarked) [Example 79, 1-ethyl-3-[6-(5-fluoropyridin-3-yl)-5-(tetrahydrofuran-3-ylmethoxy)[1,3]thiazolo[5,4-b]pyridin-2-yl]urea]	0.354 µg/mL (≈ 0.847 µM)	–	–	–	–	–
